Like-named read-outs stand apart in the source and are kept apart here.
Tests used:
[1] = log P determination by HPLC (EEC Directive 79/831 Annex V.A8); assay type: physicochemical
Procedure: The measurements were carried out using an Agilent 1100 LC system with a 50*4.6 Zorbax Eclipse C18 1.8 μm column (oven temperature 55° C., flow rate 2.0 ml/min).
The following mobile phases were used:
Mobile phase A: acetonitrile+1000 μl of formic acid/l
Mobile phase B: Millipore water+900 μl of formic acid/l

[2] = test system: caterpillars of the armyworm (Spodoptera frugiperda); experiment: Spodoptera frugiperda test (SPODFR spray treatment); assay type: in vivo; conditions: for pest or weed control at 100 g/ha: Spodoptera frugiperda, foliar, read-out: effect in % (caterpillars killed)
Excerpt: Solvent: 78.0 parts by weight of acetone

[3] = test system: larvae of the mustard beetle (Phaedon cochleariae); experiment: Phaedon test (PHAECO spray treatment); conditions: 7 days
[4] = application rate 100 g/ha, maize leaf discs
[5] = reversed-phase HPLC, Zorbax Eclipse C18 column, determined by HPLC according to EEC Directive 79/831 Annex V.A8, read-out: log P

Row | Structure (SMILES) | chromatographic logP ([1]; log P) | pest or weed control at 100 g/ha ([2]; in Zea mays) | chromatographic logP [1, 5] | also measured
1 | CNC(=O)c1cc(F)cc(C)c1NC(=O)c1cc(Cn2nnc(C(F)F)n2)nn1-c1ncccc1Cl [Example 292] | 2.21 | ≥ 80% | – | –
2 | Cc1cc(C#N)cc(C(N)=O)c1NC(=O)c1cc(Cn2nnc(C(F)(F)F)n2)nn1-c1ncccc1Br [Example 324] | – | – | – | chromatographic logP ([1]; reversed-phase HPLC, Zorbax Eclipse C18 column, by HPLC according to EEC Directive 79/831 Annex V.A8, read-out: log P): 2.46; pest or weed control at 100 g/ha [2, 4]: ≥ 80%
3 | CNC(=O)c1cc(Cl)cc(C)c1NC(=O)c1cc(Cn2nnnc2-c2ccc(C(F)(F)F)cc2)nn1-c1ncccc1Cl [drawing 598] | – | – | – | Kill in %/7 days ([3]; 4 g/ha): 0%
4 | Cc1cc(Br)cc(C(=O)NCC#N)c1NC(=O)c1cc(Cn2nnnc2C(F)(F)F)nn1-c1ncccc1C(F)(F)F [Example 451] | – | – | 2.9 | –
5 | CNC(=O)c1cc(Cl)cc(C)c1NC(=O)c1cc(Cn2nnnc2C(F)(F)F)nn1-c1ncccc1Cl [drawing 597] | – | – | – | Kill in %/7 days ([3]; 4 g/ha): 67%
6 | Cc1cc(Cl)cc(C(N)=O)c1NC(=O)c1cc(Cn2nnc(C(F)(F)F)n2)nn1-c1ncccc1Cl [Example 106] | 2.76 | ≥ 80% | – | –
7 | Cc1cc(I)cc(C(=O)NC(C)(C)C)c1NC(=O)c1cc(Cn2nnc(C(F)(F)F)n2)nn1-c1ncccc1Cl [Example 118] | 4.12 | ≥ 80% | – | –
8 | Cc1cc(F)cc(C(=O)NC2CCC2)c1NC(=O)c1cc(Cn2nnc(C(F)(F)F)n2)nn1-c1ncccc1Cl [Example 51] | 3.23 | ≥ 80% | – | –
9 | Cc1cc(C#N)cc(C(=O)NCCN)c1NC(=O)c1cc(Cn2nnc(C(F)(F)F)n2)nn1-c1ncccc1Cl [Example 123] | 1.63 | – | – | –
10 | Cc1cc(C#N)cc(C(=O)NC(C)C#N)c1NC(=O)c1cc(Cn2nnc(C(F)(F)F)n2)nn1-c1ncccc1Cl (stereo not shown) [Example 326] | 2.76 | ≥ 80% | – | –
11 | Cc1cc(Br)cc(C(N)=O)c1NC(=O)c1cc(Cn2nnnc2C(F)(F)F)nn1-c1ncccc1C(F)(F)F [Example 454] | – | – | 2.72 | –
12 | Cc1cc(I)cc(C(=O)NC(C)(C)C)c1NC(=O)c1cc(Cn2nnc(C(F)F)n2)nn1-c1ncccc1Cl [Example 307] | 3.5 | ≥ 80% | – | –
13 | CC(NC(=O)c1cc(Cl)cc(Cl)c1NC(=O)c1cc(Cn2nnc(C(F)F)n2)nn1-c1ncccc1Cl)C1CC1 (stereo not shown) [Example 283] | 3.23 | – | – | –
14 | CSC[C@H](C)NC(=O)c1cc(I)cc(C)c1NC(=O)c1cc(Cn2nnc(C(F)F)n2)nn1-c1ncccc1Cl [Example 278] | 3.41 | ≥ 80% | – | –
15 | CNC(=O)c1cc(C#N)cc(C)c1NC(=O)c1cc(Cn2nnc(C(F)(F)C(F)(F)F)n2)nn1-c1ncccc1Br [Example 422] | – | – | 3.03 | –
16 | CCNC(=O)c1cc(Cl)cc(Cl)c1NC(=O)c1cc(Cn2nnc(C(F)F)n2)nn1-c1ncccc1Cl [Example 285] | 2.7 | ≥ 80% | – | –
17 | Cc1cc(Cl)cc(C(=O)NCC#N)c1NC(=O)c1cc(Cn2nnc(C(F)(F)C(F)(F)F)n2)nn1-c1ncccc1Br [Example 421] | – | – | 3.31 | –
18 | Cc1cc(C#N)cc(C(=O)NCCC(F)(F)F)c1NC(=O)c1cc(Cn2nnc(C(F)(C(F)(F)F)C(F)(F)F)n2)nn1-c1ncccc1Cl [Example 414] | – | – | 3.92 | –
19 | Cc1cc(F)cc(C(=O)NC(C)C2CC2)c1NC(=O)c1cc(Cn2nnc(C(F)F)n2)nn1-c1ncccc1Cl (stereo not shown) [Example 293] | 2.92 | ≥ 80% | – | –
20 | CNC(=O)c1cc(Cl)cc(C)c1NC(=O)c1cc(Cn2nnnc2-c2ccc(C(F)(F)F)cc2)nn1-c1ncccc1Cl [drawing 602] | – | – | – | Kill in %/7 days ([2]; 4 g/ha): 33%
21 | CNC(=O)c1cc(Cl)cc(C)c1NC(=O)c1cc(Cn2nnc(C(F)(F)C(F)(F)F)n2)nn1-c1ncccc1Br [Example 415] | – | – | 3.36 | –
22 | Cc1cc(C#N)cc(C(N)=O)c1NC(=O)c1cc(Cn2nnc(C(F)F)n2)nn1-c1ncccc1Cl [Example 306] | 1.97 | ≥ 80% | – | –
23 | COCC(C)(C)NC(=O)c1cc(C#N)cc(C)c1NC(=O)c1cc(Cn2nnc(C(F)(F)F)n2)nn1-c1ncccc1Cl [Example 356] | 3.29 | – | – | –
24 | Cc1cc(F)cc(C(=O)NC2CC2)c1NC(=O)c1cc(Cn2nnc(C(F)F)n2)nn1-c1ncccc1Cl [Example 294] | 2.41 | ≥ 80% | – | –
25 | Cc1cc(C)c(NC(=O)c2cc(Cn3nnc(C(F)(F)F)n3)nn2-c2ncccc2Cl)c(C(=O)NC(C)C)c1 [Example 79] | 3.29 | ≥ 80% | – | –
26 | Cc1cc(Cl)cc(C(=O)NC(C)(C)C)c1NC(=O)c1cc(Cn2nnc(C(F)(F)F)n2)nn1-c1ccccc1Cl [Example 534] | – | – | 4.36 | pest or weed control at 100 g/ha [2, 4]: ≥ 80%
27 | Cc1cc(Cl)cc(C(=O)NC(C)C)c1NC(=O)c1cc(Cn2nnc(C(F)(F)C(F)(F)F)n2)nn1-c1ncccc1Br [Example 417] | – | – | 3.87 | –

Row | Structure (SMILES) | chromatographic logP ([1]; log P) | pest or weed control at 100 g/ha ([2]; in Zea mays) | chromatographic logP [1, 5] | also measured
28 | Cc1cc(Br)cc(C(=O)NC(C)C)c1NC(=O)c1cc(Cn2nnc(C(F)F)n2)nn1-c1ncccc1Cl [Example 299] | 3.08 | ≥ 80% | – | –
29 | Cc1cc(Cl)cc(C(=O)NC2CC2)c1NC(=O)c1cc(Cn2nnc(C(F)(F)C(F)(F)F)n2)nn1-c1ncccc1Br [Example 420] | – | – | 3.62 | –
30 | Cc1cc(Cl)cc(C(=O)NC(C)C)c1NC(=O)c1cc(Cn2nnc(C(F)(F)C(F)(F)F)n2)nn1-c1ncccc1Cl [drawing 599] | – | – | – | Kill in %/7 days ([2]; 0.8 g/ha): 100%
31 | Cc1cc(Br)cc(C(=O)NC(C)(C)C)c1NC(=O)c1cc(Cn2nnnc2C(F)(F)F)nn1-c1ncccc1C(F)(F)F [Example 458] | – | – | 3.78 | pest or weed control at 100 g/ha [2, 4]: ≥ 80%
32 | Cc1cc(C#N)cc(C(=O)NC(C)C2CCC2)c1NC(=O)c1cc(Cn2nnc(C(F)(F)F)n2)nn1-c1ncccc1Cl (stereo not shown) [Example 90] | 3.63 | – | – | –
33 | COCCNC(=O)c1cc(C#N)cc(C)c1NC(=O)c1cc(Cn2nnnc2C(F)(F)F)nn1-c1ncccc1Cl [Example 209] | 2.4 | – | – | –
34 | Cc1cc(C#N)cc(C(=O)NCC2CC2(Cl)Cl)c1NC(=O)c1cc(Cn2nnnc2C(F)(F)F)nn1-c1ncccc1Cl (stereo not shown) [Example 190] | 3.16 | ≥ 80% | – | –
35 | CSC[C@H](C)NC(=O)c1cc(C#N)cc(C)c1NC(=O)c1cc(Cn2nnc(C(F)F)n2)nn1-c1ncccc1Cl [Example 268] | 2.77 | ≥ 80% | – | –
36 | Cc1cc(C)c(NC(=O)c2cc(Cn3nnc(C(F)(F)F)n3)nn2-c2ncccc2Cl)c(C(=O)NCC2CC2)c1 [Example 83] | 3.35 | ≥ 80% | – | –
37 | CCNC(=O)c1cc(I)cc(C)c1NC(=O)c1cc(Cn2nnc(C(F)F)n2)nn1-c1ncccc1Cl [Example 276] | 2.98 | – | – | –
38 | Cc1cc(Cl)cc(C(=O)NC(C)(C)C)c1NC(=O)c1cc(Cn2nnc(C(F)(F)C(F)(F)F)n2)nn1-c1ncccc1Br [Example 419] | – | – | 4.23 | –
39 | CNC(=O)c1cc(S(C)(=O)=O)cc(C)c1NC(=O)c1cc(Cn2nnnc2C(F)(F)F)nn1-c1ccccc1Cl [Example 524] | – | – | 2.43 | –
40 | CCNC(=O)c1cc(C#N)cc(C)c1NC(=O)c1cc(C(C)n2nnc(C(F)(F)F)n2)nn1-c1ncccc1Cl (stereo not shown) [Example 429] | 3.11 | – | – | –
41 | CCNC(=O)c1cc(F)cc(C)c1NC(=O)c1cc(Cn2nnc(C(F)(F)F)n2)nn1-c1ncccc1Cl [Example 35] | 2.88 | ≥ 80% | – | –
42 | Cc1cc(Cl)cc(C(=O)NC(C)C)c1NC(=O)c1cc(Cn2nnc(C(F)(F)C(F)(F)F)n2)nn1-c1ncccc1Cl [drawing 595] | – | – | – | Kill in %/7 days ([3]; 0.8 g/ha): 100%
43 | Cc1cc(I)cc(C(=O)NC2CC2)c1NC(=O)c1cc(Cn2nnc(C(F)F)n2)nn1-c1ncccc1Cl [Example 275] | 2.96 | ≥ 80% | – | –
44 | Cc1cc(C#N)cc(C(=O)NCCCCCCO)c1NC(=O)c1cc(Cn2nnc(C(F)(F)F)n2)nn1-c1ncccc1Cl [Example 94] | 2.71 | – | – | –
45 | Cc1cc(Cl)cc(C(=O)NC(C)(C)C)c1NC(=O)c1cc(Cn2nnnc2C(F)(F)C(F)(F)F)nn1-c1ccccc1Cl [Example 536] | – | – | 4.41 | pest or weed control at 100 g/ha [2, 4]: ≥ 80%
46 | CNC(=O)c1cc(Cl)cc(C)c1NC(=O)c1cc(Cn2nnnc2C(F)(F)F)nn1-c1ncccc1Cl [drawing 601] | – | – | – | Kill in %/7 days ([2]; 4 g/ha): 100%
47 | Cc1cc(Cl)cc(C(N)=O)c1NC(=O)c1cc(Cn2nnc(C(F)(F)C(F)(F)F)n2)nn1-c1ncccc1Br [Example 418] | – | – | 3.13 | –
48 | Cc1cc(Br)cc(C(=O)NC(C)(C)C)c1NC(=O)c1cc(Cn2nnc(C(F)(F)F)n2)nn1-c1ncccc1Br [Example 409] | – | – | 4 | –
49 | CNC(=O)c1cc(Cl)cc(C)c1NC(=O)c1cc(Cn2nnnc2C(F)(F)F)nn1-c1ccccc1 [Example 502] | – | – | 2.84 | pest or weed control at 100 g/ha [2, 4]: ≥ 80%
50 | CSC[C@H](C)NC(=O)c1cc(C#N)cc(C)c1NC(=O)c1cc(Cn2nnnc2C(F)(F)F)nn1-c1ncccc1Cl [Example 193] | 2.92 | – | – | –
51 | Cc1cc(C#N)cc(C(N)=O)c1NC(=O)c1cc(Cn2nnc(C(F)(F)F)n2)nn1-c1ccccc1Cl [Example 439] | – | – | 2.82 | –
52 | Cc1cc(C#N)cc(C(=O)NC(C)(C)C)c1NC(=O)c1cc(Cn2nnnc2C(F)(F)F)nn1-c1ccccc1Cl [Example 489] | – | – | 3.52 | pest or weed control at 100 g/ha [2, 4]: ≥ 80%
53 | Cc1cc(C#N)cc(C(=O)NCC#N)c1NC(=O)c1cc(Cn2nnc(C(F)(F)C(F)(F)F)n2)nn1-c1ncccc1Br [Example 416] | – | – | 2.8 | –
54 | CSC[C@H](C)NC(=O)c1cc(Cl)cc(Cl)c1NC(=O)c1cc(Cn2nnc(C(F)F)n2)nn1-c1ncccc1Cl [Example 288] | 3.13 | ≥ 80% | – | –
